In patent US20230398232A1, “Composition and Use of Alternatively Formatted Anti-Mesothelin Antibodies for the Treatment of Cancer” (Navrogen, Inc., priority 2020, published 2023):
Square brackets hold non-standard residues; d marks the D form. Peptide text beside a SMILES is read from it. * marks the point of attachment. Dolaproine = CO[C@@H]([C@@H]1CCCN1)[C@@H](C)C(=O)O; Dil = CC[C@H](C)[C@H](NC)[C@@H](CC(=O)O)OC; X1 = C[C@@H](N*)[C@@H](O)c1ccccc1; NMeV = CN[C@H](C(=O)O)C(C)C

How the values were obtained:
[1] = test system: NCI-N87, SW1990, HAY, YOU, OVCAR3 and A549 cells; assay: Free cytotoxin cytotoxicity, crystal violet viability; format: cell-based, human; settings: 72 hours, average over cell lines
Description: FIGS. 2A-C. Cytotoxic payloads and linkers examined for developing reformatted MES-1 antibody for optimal killing of immunoproficient and immunosuppressed mesothelin expressing cancer cells. FIG. 2A provides chemical structures of various types of cytotoxic payloads (i.e., microtubule inhibitors, DNA alkylating agents, topoisomerase inhibitors, and protein kinase inhibitors, see, e.g., Yaghoubi S, et al. J Cell Physiol 235:31-64, 2019; Wang R E, et al. J Am Chem Soc 137:3229-3232, 2015) tested against immunosuppressive and immunoproficient mesothelin expressing target cells. FIG. 2B provides chemical structures of various enzymatic and non-enzymatic cleavable and non-cleavable linkers tested to generate MES-ADCs against immunosuppressive and immune-proficient mesothelin expressing target cells. FIG. 2C provides an overview of the cytotoxicity of potential ADC payloads against mesothelin expressing cancer cells or control cell lines (Table 1). Briefly, 96-well tissue culture plates were seeded with 5,000 cells/well of mesothelin-positive NCI-N87 (CA125^+ gastric cancer), SW1990 (CA125^+ pancreatic cancer), HAY (CA125^+ mesothelioma), YOU (CA125^− mesothelioma), OVCAR3 (CA125^+ ovarian cancer) and A549 (mesothelin negative lung cancer) cells in 100 μLs of RPMI plus 7.5% heat inactivated fetal bovine serum (FBS), and 0.0001 to 500 ng/mL of cytotoxin or negative control. Cultures were incubated for 72 hours at 37° C. in 5% CO2 then quantified for viability using crystal violet staining. Dried stained wells were solubilized using 1% SDS in phosphate buffer saline (PBS) and quantified by colorimetric densitometry on a Varioskan™ multi-well plate reader at 570 nm. […] Experiments represent a minimum of triplicate wells. Statistical analysis was done using a two-sided Student' T-test.
To identify best candidates to meet this criteria, we first tested different classes of cytotoxins including DNA alkylating agents, microtubule inhibitors, and topoisomerase inhibitors (FIG. 2A). […]

mesothelioma = settings: patients with elevated CA125 vs low CA125; cited from earlier work
follicular lymphoma = settings: CA125 in normal range vs above normal range; cited from earlier work

Compound	average EC50 [1]	further results
CC[C@H](C)[C@@H]([C@@H](CC(=O)N1CCC[C@H]1[C@H](OC)[C@@H](C)C(=O)N[C@H](C)[C@@H](O)c1ccccc1)OC)N(C)C(=O)[C@@H](NC(=O)[C@@H](NC)C(C)C)C(C)C [MMAE, Monomethyl Auristatin E] (H-[NMeV]V[Dil][Dolaproine]-X1)	1.39 ng/mL	–
COc1cccc2c1C(=O)c1c(O)c3c(c(O)c1C2=O)C[C@@](O)(C(=O)CO)C[C@@H]3O[C@H]1C[C@H]2[C@H](O[C@@H]3[C@@H](OC)OCCN32)[C@H](C)O1 [PNU159682, reference compound]	0.014 ng/mL	–
CCc1c2c(nc3ccc(O)cc13)-c1cc3c(c(=O)n1C2)COC(=O)[C@]3(O)CC [SN38]	2.44 ng/mL	–
amatuximab: anti-mesothelin antibody	–	PFS and OS outcomes (mesothelioma): worse progression-free survival (PFS) and overall survival (OS) outcomes
rituximab: clinically used rituximab antibody	–	improvement in 5-year progression-free survival (follicular lymphoma): 31.4%
